From PMC12495443, “Developing inhibitors of the guanosine triphosphate hydrolysis accelerating activity of Regulator of G protein Signaling-14 [drawing 1]” (The Journal of Biological Chemistry, 2025)
Residue numbers refer to the chain shown, from its start. “Also recorded” adds a separate entry of the source.

Columns and labels:
THP-1 cell line = experiment: Cytotoxicity assays (CytoTox-Glo, CytoTox 96); type: cell-based; conditions: THP-1 cells, overnight, CytoTox-Glo and CytoTox 96
Experimental: To evaluate cellular toxicity of active compounds, we employed the immortalized human monocytic THP1-Dual cell line (InvivoGen) in two orthogonal cytotoxicity assays: ATP-dependent luminescence (CytoTox-Glo) and colorimetric lactate dehydrogenase (LDH) release (CytoTox 96). For each assay, compounds were serially diluted 2-fold starting at 250 μM and added to 96-well flat-bottom tissue culture plates (Thermo Scientific Nunc, Cat# 165306). THP1-Dual cells were then seeded at 20,000 to 30,000 cells per well in 100 μl RPMI 1640 media supplemented with 10% fetal bovine serum (Gibco). Plates were gently mixed and incubated overnight at 37 °C in a humidified 5% CO2 incubator. For the CytoTox-Glo assay (Promega, Cat# G9291), 50 μl of assay reagent was added to each well. Plates were mixed briefly, sealed, and incubated at room temperature for 15 min before reading luminescence on a TECAN Infinite M1000 Pro plate reader to quantify dead-cell signal. Subsequently, 50 μl of a digitonin-containing lysis solution was added to each well, followed by a second luminescence read after 15 min to assess total cell content. Percent cytotoxicity was calculated per manufacturer instructions. For the CytoTox 96 Non-Radioactive Cytotoxicity Assay (Promega, Cat# G1780), after overnight compound treatment, LDH release into the culture medium was measured by adding the provided substrate mix. Absorbance was read at 490 or 492 nm within 1 h of adding the stop solution. Assay optimization and data normalization were conducted according to the manufacturer’s technical manual.

[1] = target: T1, human RGS14 RGS-box (wild-type) (Homo sapiens, UniProt O43566); experiment: Transcreener GDP RGScreen fluorescence polarization assay of RGS14 RGS-box GAP activity on Gαi1(DM); type: biochemical
T1 construct: human RGS14 RGS-box (aa 46–195 of UniProt O43566); host or cells: E. coli
T1 sequence (O43566 46-195): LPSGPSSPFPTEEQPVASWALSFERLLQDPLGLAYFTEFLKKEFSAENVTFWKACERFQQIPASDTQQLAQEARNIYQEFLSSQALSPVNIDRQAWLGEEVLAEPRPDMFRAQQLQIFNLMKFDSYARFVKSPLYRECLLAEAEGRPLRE
Method in brief: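 Steady-state GTP hydrolysis by rate-altered double point-mutant Gαi1 was read by Transcreener GDP fluorescence polarization, with GTP conversion kept below 10% of maximum input. The E. coli-expressed, N-terminal His6-tagged wild-type RGS-boxes were RGS12 aa 695–843 and RGS14 aa 46–195.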

[2] = target: T2, cysteine-less RGS14 RGS-box protein (Homo sapiens, UniProt O43566, C100S/C183S); experiment: Transcreener GDP RGScreen assay with cysteine-less RGS14 RGS-box; type: biochemical; conditions: range given jointly for cysteine-less RGS14 and RGS12 proteins; read-out: estimated IC50, cysteine-less RGS14 RGS-box
T2 construct: human RGS14 RGS-box (aa 46–195 of UniProt O43566); host or cells: E. coli
T2 sequence (O43566 46-195 C100S/C183S): T1 sequence (O43566 46-195) with C55S, C138S
Source text: Given the earlier experience with screening hit CCG-4986 being a covalent modifier of RGS4 cysteine residues ([35]), we sought to exclude protein-thiol reactivity as a potential mechanism of action of the active compounds derived from the AtomNet virtual screening effort ([55]) and SAR campaign follow-ups. To address this possibility and screen out thiol-reactive hits, cysteine-lacking versions of recombinant proteins spanning the RGS-boxes of RGS14 and RGS12 were purified from E. coli cultures.
Reagents and protocols for the fluorescence anisotropy-based Transcreener GDP RGScreen assay using a rate-altered, double point-mutant, recombinant Gαi1 protein have been extensively described previously ([43], [44]); reactions were always performed so that total GTP converted over the time course was consistently less than 10% of reaction maximum input. Specific methods for its application in assessing RGS14 and RGS12 GAP activity are summarized as follows. Open-reading frames (ORFs) encoding wild-type versions of the human RGS14 RGS-box (aa 46–195 of UniProt O43566) and human RGS12 RGS-box (aa 695–843 of UniProt O14924) were each sub-cloned in-frame with an N-terminal hexahistidine (His6) expression tag in the plasmid pET30a, expressed in E. coli cultures, and then purified by nickel-nitriloacetate (Ni-NTA) and size-exclusion (Superdex 200) column chromatographies by GenScript using previously described methods ([35]). […]
Supplementary Figure S5. […] (A,B) Recombinant, cysteine residue-lacking (“-cys”) RGS14 RGS-box protein (panel A) and cysteine residue-lacking RGS12 RGS-box protein ([…]) were both observed, in a concentration-dependent fashion (indicated in ng/µL by color), to increase steady-state GDP production by 0.5 ng/µL Gai1(DM) protein in a 20 µL final reaction volume, as measured by the Transcreener® GDP-detection RGScreen™ assay and detected by the change in polarization (ΔmP) at each indicated time point (“enz” = Gai1(DM) protein a.k.a. […]

Ratio (RGS14 pIC50 / RGS12 pIC50) ([1]; values > 1.0 reflect RGS14 selectivity): 0.95
IC50 ([1]; wild-type RGS14 RGS-box GAP activity, Gαi1(DM), Transcreener GDP RGScreen, read-out: RGS14 pIC50 (converted)): 2.29 µM
IC50 [2]: 10 to 19 µM
Compound: COc1ccc(OCc2nnc3n2N=C(c2ccc(OC)c(OC)c2)CS3)cc1 [Z55660043, 6-(3,4-dimethoxyphenyl)-3-[(4-methoxy-phenoxy)methyl]-5H-[1,2,4]triazolo[3,4-b][1,3,4]thiadiazine]
cytotoxicity (THP-1 cell line): without measurable cytotoxicity; also recorded: no overt cytotoxicity
